Assay results from patent publication US9610299B2, “Compounds for the treatment of addiction” (Gilead Sciences, Inc., priority 2011, dated 2017).

Experiments:
Format in all cases: in vivo
Male SD rats [1] = test: Rat nicotine self administration, acute treatment; conditions: for inhibition of number of nicotine infusions: vs vehicle
Protocol: Male SD rats were trained to self administer i.v. nicotine (0.03 mg/kg/inj) daily (Monday to Friday) in standard operant chambers with retractable levers (MED Associates, Inc) as previously published (Levin et al., 2003; Levin et al., 2007). During the daily 45 min session, rats received 0.05 ml infusion of 0.03 mg/kg/infusion of nicotine every time the active lever was pressed. A cue light and tone turned on for 0.5 sec together with the activation of a pump that delivered the nicotine solution. Daily sessions were run for at least 10 days before the initiation of drug testing. Solutions of compounds of Example 2 and Example 5 were prepared fresh daily in Formulation 2B: 25% PEG400/5% Vit E TPGS/1% SLS/69% water with 0.5% Methocel) for oral dosing. Compound of Example 2 doses were administered in a counterbalanced design for testing 1 hr before each nicotine session. Every rat received all drug doses and vehicle in a randomly assigned order. The oral drug administrations were made twice per week.
Compound of Example 5 was tested in a study using 4 independent groups. Each group received either oral vehicle or 1 of the 3 doses of compound of Example 5 (5, 10 or 30 mg-eq/kg). […] The 5 mg/kg dose was ineffective.

[2] = tested on: male Sprague Dawley (SD) rats; test: Rat cocaine cue reinstatement; conditions: for inhibition of cocaine cue-induced reinstatement (lever presses): 1 hr before session, vs vehicle
Protocol: Training of male Sprague Dawley (SD) rats had 3 separate stages. First, during self administration, animals were trained to lever press for cocaine with presentation of concomitant cues associated with drug delivery. Rats that reached criteria for addiction were included in the study. Afterward, during cue extinction, cocaine-cue dependent behavior was extinguished. Lastly, during cocaine cue reinstatement, the effect of compounds was tested on lever presses upon cue presentation (FIG. 2).
Rats were trained to self administer i.v. cocaine (0.35 mg/kg/injection) daily (Monday to Friday) in standard operant chambers with retractable levers (Coulbourn Instruments, PA). During the daily 2 hr session, rats received a 0.05 ml infusion of 0.35 mg/kg cocaine every time the active lever was pressed. A cue light and tone turned on for 2 sec together with activation of a pump that delivered the cocaine solution. Rats were required to maintain an infusion rate of ≧20+ per day for at least 10 days before being moved to extinction training.
During extinction sessions lever presses no longer produced cocaine infusion and cue light/tone presentation was absent. Rats received a maximum of 15 extinction sessions.
On the next day after reaching extinction criteria, rats were treated orally with vehicle (Formulation 2B: 25% PEG400/5% Vit E TPGS/1% SLS/69% water with 0.5% Methocel) or drug (compound of Example 2 or compound of Example 5) before the cue reinstatement session. Cue reinstatement began with a tone and cue light. This 2 hr session was identical to the self-administration session (cue light and tone present upon active lever press) except that no cocaine was delivered. The number of active lever presses was compared to extinction lever responding. This is considered a measure of reinstatement. The next day, rats were returned to extinction sessions for at least 2 or 3 more sessions. Rats then received a second and last reinstatement session with an opposite treatment to the one received on the first reinstatement session (vehicle or drug treatment). […] The light/tone presentation triggers this response and it is interpreted as a measure of reinstatement even though cocaine is not available.

Male SD rats [3] = test: Rat nicotine self administration, chronic treatment; conditions: for inhibition of number of nicotine infusions: vs vehicle
Protocol: Upon completion of the acute compound of Example 5 treatment study, the same animals were used to test the effect of 7-day chronic oral administration of compound of Example 5 in the nicotine self administration model. Rats were treated orally with compound of Example 5 (5, 10 or 30 mg-eq/kg) or vehicle 1 hr before nicotine self administration session for 7 consecutive days. […] Similar to the acute treatment, the 5 mg-eq/kg dose was ineffective (FIG. 7). […] Animals in nicotine self administration studies had to reach pre defined criteria (e.g. rat strain, minimum number of nicotine infusions, consistent baseline nicotine self administration throughout the study, patent iv catheters, etc.) to be included in analysis.

Compound | effect on number of nicotine infusions, in words (Male SD rats [1]; 1 mg/kg oral) | effect on number of nicotine infusions, in words (Male SD rats [1]; 5 mg/kg oral) | inhibition of cocaine cue-induced reinstatement (lever presses) ([2]; 2.5 mg-eq/kg oral) [%] | effect on cocaine cue reinstatement, in words ([2]; 2.5 mg-eq/kg oral, lowest dose tested) | inhibition of cocaine cue-induced reinstatement (lever presses) ([2]; 5 mg-eq/kg oral) [%] | inhibition of cocaine cue-induced reinstatement (lever presses) ([2]; 10 mg-eq/kg oral) [%] | inhibition of cocaine cue-induced reinstatement (lever presses) ([2]; 30 mg-eq/kg oral) [%] | effect on number of nicotine infusions, in words (Male SD rats [1]; 5 mg-eq/kg oral, independent groups) | inhibition of number of nicotine infusions (Male SD rats [1]; 10 mg-eq/kg oral, independent groups) [%] | inhibition of number of nicotine infusions (Male SD rats [1]; 30 mg-eq/kg oral, independent groups) [%] | development of tolerance to the therapeutic effect (Male SD rats [3]; 7-day chronic oral administration (data not shown)) | effect on number of nicotine infusions, in words (Male SD rats [3]; 7-day chronic oral, 5 mg-eq/kg) | inhibition of number of nicotine infusions (Male SD rats [3]; 7-day chronic oral, 10 mg-eq/kg) [%] | inhibition of number of nicotine infusions (Male SD rats [3]; 7-day chronic oral, 30 mg-eq/kg) [%]
O=C(NCc1ccc(-c2cc[nH]c(=O)c2)cc1)c1c(Cl)cccc1Cl [Compound 2, 2,6-dichloro-N-[4-(2-oxo-1,2-dihydro-pyridin-4-yl)-benzyl]-benzamide] | without effect | without effect |  |  |  |  |  |  |  |  |  |  |  | 
O=C(NCc1ccc(-c2ccn(COP(=O)(O)O)c(=O)c2)cc1)c1c(Cl)cccc1Cl [Compound 14, phosphoric acid mono-(4-{4-[(2,6-dichloro-benzoylamino)-methyl]-phenyl}-2-oxo-2H-pyridin-1-ylmethyl) ester] |  |  | 30 | not significantly different from vehicle | 59 | 55 | 50 | ineffective | 51 | 68 | no development of tolerance | ineffective | 48 | 62
